Test results: patent US8937089B2, “Synergistic mixtures of anthranilamide invertebrate pest control agents” (priority 2004, dated 2015)
Read-outs that look alike come from different tables or passages of the source.

Tests used:
Test in all cases: whole plant or invertebrate
Assay type in all cases: in vivo
[1] = test system: green peach aphid (Myzus persicae Sulzer)
Procedure, shortened: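 Compounds formulated in 10% acetone/water with 300 ppm X-77 surfactant were atomized onto aphid-infested radish seedlings, with three replicates per treatment. Infestation was 30–40 aphids transferred on excised leaf pieces, covering contact and systemic exposure. Test units stayed 6 days in a growth chamber at 19–21 °C and 50–70% relative humidity.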

[2] = test system: corn planthopper (Peregrines maidis)
Procedure, shortened: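 Compounds in 10% acetone/90% water with 300 ppm X-77 surfactant sprayed (3 replications) onto 3- to 4-day-old corn plants, dried 1 h, then infested with 10–20 corn planthopper nymphs aged 18–20 days. Held 6 days at 19-21° C. and 50-70% relative humidity; contact and/or systemic control assessed.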

[3] = test system: potato leafhopper (Empoasca fabae Harris)
Procedure, shortened: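 Bean plants (5–6 days old, one primary leaf excised) were sprayed with 1 mL of compound in 10% acetone/water with 300 ppm X-77 surfactant, 3 replicates. After drying for 1 h, each unit was infested with 5 adult leafhoppers. Units were held 6 days at 19–21 °C and 50–70% RH.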

[4] = test system: western flower thrip (Frankliniella occidentalis Pergande)
Procedure, shortened: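 Compounds in 10% acetone/90% water with 300 ppm non-ionic surfactant were sprayed onto 5- to 7-day-old bean plants, 3 replicates. After 1 h drying, 22–27 adult thrips were added per unit. Units were held 7 days at 25° C, 45–55% RH, assessing contact and/or systemic control.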

[5] = test system: silverleaf whitefly (Bemisia argentifolii Bellows and Perring)
Procedure, shortened: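 Whitefly-egg-infested 12–14-day-old cotton plants sprayed with compound in 10% acetone/90% water plus 300 ppm non-ionic surfactant, in triplicate. Plants then held 13 days at 28 °C and 50–70% relative humidity before mortality assessment.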

[6] = test system: cotton melon aphid (Aphis gossypii Glover)
Procedure, shortened: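 Cotton plants (6–7 days old) pre-infested with 30–40 aphids by cut-leaf method, sprayed with compound (ppm) in 10% acetone/90% water with 300 ppm X-77 surfactant, three replicates. Held 6 days at 19–21 °C, 50–70% RH; contact and/or systemic control assessed.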

[7] = rate 1 ppm, single compound, spray, 7 days
[8] = rate 500 ppm, single compound, spray, 7 days

CNC(=O)c1cc(Cl)cc(C)c1NC(=O)c1cc(Br)nn1-c1ncccc1Cl [Compound 1, 3-bromo-N-[4-chloro-2-methyl-6-[(methylamino)carbonyl]phenyl]-1-(3-chloro-2-pyridinyl)-1H-pyrazole-5-carboxamide]
mortality at 10 ppm ([1]; Myzus persicae, in Raphanus sativus, Green Peach Aphid, rate 10 ppm, read-out: % mortality (obs)): 24% | mortality at 20 ppm ([1]; Myzus persicae, in Raphanus sativus, Green Peach Aphid, rate 20 ppm, read-out: % mortality (obs)): 35% | mortality at 40 ppm ([1]; Myzus persicae, in Raphanus sativus, Green Peach Aphid, rate 40 ppm, read-out: % mortality (obs)): 36% | mortality at 2.1 ppm ([1]; Myzus persicae, in Raphanus sativus, Table 7A, Compound 1 2.1 ppm, read-out: % Mortality (observed)): 5% | mortality at 3.9 ppm ([1]; Myzus persicae, in Raphanus sativus, Table 7A, Compound 1 3.9 ppm, read-out: % Mortality (observed)): 2% | mortality at […] ([1]; Myzus persicae, in Raphanus sativus, Table 7A, Compound 1 7.5 ppm, read-out: % Mortality (observed)): 6% | mortality at 20 ppm ([2]; Corn Plant Hopper, rate 20 ppm, read-out: % mortality (obs)): 15% | mortality at 100 ppm ([2]; Corn Plant Hopper, rate 100 ppm, read-out: % mortality (obs)): 19% | mortality at 500 ppm ([2]; Corn Plant Hopper, rate 500 ppm, read-out: % mortality (obs)): 28% | mortality at 5 ppm ([2]; Table 5A, Compound 1 5 ppm, read-out: % Mortality (observed)): 6% | mortality at 50 ppm ([2]; Table 5A, Compound 1 50 ppm, read-out: % Mortality (observed)): 9% | mortality at 150 ppm ([2]; Table 5A, Compound 1 150 ppm, read-out: % Mortality (observed)): 28% | mortality at 0.4 ppm ([3]; Empoasca fabae, Table 4A, Compound 1 0.4 ppm, read-out: % Mortality (observed)): 0% | mortality at 1.4 ppm ([3]; Empoasca fabae, Table 4A, Compound 1 1.4 ppm, read-out: % Mortality (observed)): 0% | mortality at 4.6 ppm ([3]; Empoasca fabae, Table 4A, Compound 1 4.6 ppm, read-out: % Mortality (observed)): 0% | mortality at 4 ppm ([3]; Empoasca fabae, rate 4 ppm, alone, read-out: % mortality (obs)): 23% | mortality at 14 ppm ([3]; Empoasca fabae, rate 14 ppm, alone, read-out: % mortality (obs)): 37% | mortality at 50 ppm ([3]; Empoasca fabae, rate 50 ppm, alone, read-out: % mortality (obs)): 54% | mortality at 10 ppm ([4]; Frankliniella occidentalis, 168 h, rate 10 ppm, single compound, spray, 7 days, read-out: % mortality (obs)): 44% | mortality at 50 ppm ([4]; Frankliniella occidentalis, 168 h, rate 50 ppm, single compound, spray, 7 days, read-out: % mortality (obs)): 49% | mortality at 100 ppm ([4]; Frankliniella occidentalis, 168 h, rate 100 ppm, single compound, spray, 7 days, read-out: % mortality (obs)): 46% | mortality at 8 ppm ([4]; Frankliniella occidentalis, Table 3A, Compound 1 8 ppm, read-out: % Mortality (observed)): 3% | mortality at 25 ppm ([4]; Frankliniella occidentalis, Table 3A, Compound 1 25 ppm, read-out: % Mortality (observed)): 17% | mortality at 81 ppm ([4]; Frankliniella occidentalis, Table 3A, Compound 1 81 ppm, read-out: % Mortality (observed)): 30% | mortality at 8 ppm ([5]; Bemisia argentifolii, in Gossypium hirsutum, Table 2A, Compound 1 8 ppm, read-out: % Mortality (observed)): 4% | mortality at 10 ppm ([5]; Bemisia argentifolii, in Gossypium hirsutum, Table 2A, Compound 1 10 ppm, read-out: % Mortality (observed)): 1% | mortality at 6 ppm ([5]; Bemisia argentifolii, in Gossypium hirsutum, Table 2B, rate 6 ppm, read-out: % mortality (obs)): 3% | mortality at 8 ppm ([5]; Bemisia argentifolii, in Gossypium hirsutum, Table 2B, rate 8 ppm, read-out: % mortality (obs)): 3% | mortality at 10 ppm ([5]; Bemisia argentifolii, in Gossypium hirsutum, Table 2B, rate 10 ppm, read-out: % mortality (obs)): 5% | mortality at 0.8 ppm ([6]; Aphis gossypii, Table 6A, Compound 1 0.8 ppm, read-out: % Mortality (observed)): 12% | mortality at […] ([6]; Aphis gossypii, Table 6A, Compound 1 4.5 ppm, read-out: % Mortality (observed)): 32% | mortality at 25 ppm ([6]; Aphis gossypii, Table 6A, Compound 1 25 ppm, read-out: % Mortality (observed)): 23% | mortality at 4 ppm ([6]; Aphis gossypii, rate 4 ppm, read-out: % mortality (obs)): 25% | mortality at 20 ppm ([6]; Aphis gossypii, rate 20 ppm, read-out: % mortality (obs)): 41% | mortality at 100 ppm ([6]; Aphis gossypii, rate 100 ppm, read-out: % mortality (obs)): 49%

COC(=O)N(C(=O)N1CO[C@@]2(C(=O)OC)Cc3cc(Cl)ccc3C2=N1)c1ccc(OC(F)(F)F)cc1 [Indoxacarb]
% mortality (obs) ([1]; Green Peach Aphid, rate 10 ppm): 9% | % mortality (obs) ([1]; Green Peach Aphid, rate 20 ppm): 7% | % mortality (obs) ([1]; Green Peach Aphid, rate 30 ppm): 8% | % mortality (obs) ([2]; Corn Plant Hopper, rate 50 ppm): 3% | % mortality (obs) ([2]; Corn Plant Hopper, rate 500 ppm): 4% | % mortality (obs) ([2]; Corn Plant Hopper, rate 3000 ppm): 18% | % mortality (obs) ([3]; rate 0.5 ppm, alone): 33% | % mortality (obs) ([3]; rate 1 ppm, alone): 20% | % mortality (obs) ([3]; rate 2 ppm, alone): 27% | % mortality (obs) [4, 7]: 50% | % mortality (obs) [4, 8]: 50% | % mortality (obs) ([4]; rate 3000 ppm, single compound, spray, 7 days): 50% | % mortality (obs) ([5]; Table 2B, rate 1 ppm): 0% | % mortality (obs) ([5]; Table 2B, rate 3 ppm): 0% | % mortality (obs) ([5]; Table 2B, rate 10 ppm): 0% | % mortality (obs) ([6]; rate 10 ppm): 16% | % mortality (obs) ([6]; rate 20 ppm): 28% | % mortality (obs) ([6]; rate 30 ppm): 34%

CNC(=O)O/N=C(\SC)C(=O)N(C)C [Oxamyl]
% mortality (obs) ([1]; Green Peach Aphid, rate 40 ppm): 8% | % mortality (obs) ([1]; Green Peach Aphid, rate 70 ppm): 18% | % mortality (obs) ([1]; Green Peach Aphid, rate 100 ppm): 35% | % mortality (obs) ([2]; Corn Plant Hopper, rate 0.08 ppm): 2% | % mortality (obs) ([2]; Corn Plant Hopper, rate 0.16 ppm): 5% | % mortality (obs) ([2]; Corn Plant Hopper, rate 0.2 ppm): 6% | % mortality (obs) ([3]; rate 0.1 ppm, alone): 20% | % mortality (obs) ([3]; rate 2 ppm, alone): 20% | % mortality (obs) ([3]; rate 100 ppm, alone): 100% | % mortality (obs) [4, 7]: 30% | % mortality (obs) ([4]; rate 50 ppm, single compound, spray, 7 days): 40% | % mortality (obs) [4, 8]: 100% | % mortality (obs) ([5]; Table 2B, rate 0.1 ppm): 2% | % mortality (obs) ([5]; Table 2B, rate 0.3 ppm): 0% | % mortality (obs) ([5]; Table 2B, rate 1 ppm): 1% | % mortality (obs) ([6]; rate 1 ppm): 29% | % mortality (obs) ([6]; rate 10 ppm): 37% | % mortality (obs) ([6]; rate 1000 ppm): 100%
